In article PMC8284453 (Antimicrobial Agents and Chemotherapy, 2021):
Values after ≈ are worked out from the molar mass of the structure shown. Like-named read-outs stand apart in the source and are kept apart here.

Tests used:
[1] = system: Enterobacterales expressing class D oxacillinases (OXA-48/48-like); assay: organism not typed; assay type: cell-based, E. coli, K. pneumoniae
[2] = system: E. coli ESBL4 (CTX-M-15); assay: Broth microdilution MIC; assay type: cell-based; conditions: Escherichia coli
[3] = system: Enterobacterales expressing class A ESBLs; assay: organism not typed; assay type: cell-based, E. coli, K. pneumoniae
[4] = system: Enterobacterales expressing class A carbapenemases (KPC); assay: organism not typed; assay type: cell-based, K. pneumoniae, E. coli, E. cloacae, Klebsiella oxytoca
[5] = 25 isolates, BLI fixed at 4 μg/ml, AMC 2:1

Structure (SMILES): Nc1nc(/C(=C/CC(=O)O)C(=O)N[C@@H]2C(=O)N3C(C(=O)O)=CCS[C@H]23)cs1 [CTB, ceftibuten]
- MIC50 [1, 5]: 16 µg/mL (≈ 39 µM)
- MIC90 [1, 5]: ≥ 64 µg/mL
- MIC ([1]; E. coli 664507 (OXA-48)): 16 µg/mL (≈ 39 µM)
- MIC ([1]; E. coli 664516 (OXA-48)): 32 µg/mL (≈ 78 µM)
- MIC ([1]; E. coli 664520 (OXA-48)): 16 µg/mL (≈ 39 µM)
- MIC ([1]; E. coli 664522 (OXA-48)): 32 µg/mL (≈ 78 µM)
- MIC ([1]; E. coli 664523 (OXA-48)): 16 µg/mL (≈ 39 µM)
- MIC ([1]; E. coli 664524 (OXA-48)): 16 µg/mL (≈ 39 µM)
- MIC ([1]; E. coli 664525 (OXA-48)): 32 µg/mL (≈ 78 µM)
- MIC ([1]; E. coli 664526 (OXA-48)): 16 µg/mL (≈ 39 µM)
- MIC ([1]; E. coli 664528 (OXA-48)): 16 µg/mL (≈ 39 µM)
- MIC ([1]; E. coli 787112 (OXA-48)): ≥ 64 µg/mL
- MIC ([1]; E. coli SI-422 (OXA-48)): 0.25 µg/mL (≈ 0.609 µM)
- MIC ([1]; E. coli VER (OXA-48)): 0.06 µg/mL (≈ 0.146 µM)
- MIC ([1]; K. pneumoniae 6299 (OXA-163)): 8 µg/mL (≈ 19.5 µM)
- MIC ([1]; K. pneumoniae 515746 (OXA-48), first line): 16 µg/mL (≈ 39 µM)
- MIC ([1]; K. pneumoniae 515746 (OXA-48), second line): 16 µg/mL (≈ 39 µM)
- MIC ([1]; K. pneumoniae 664438 (OXA-48)): 16 µg/mL (≈ 39 µM)
- MIC ([1]; K. pneumoniae 664439 (OXA-48)): 16 µg/mL (≈ 39 µM)
- MIC ([1]; K. pneumoniae 664509 (OXA-48)): ≥ 64 µg/mL
- MIC ([1]; K. pneumoniae 664518 (OXA-48)): 32 µg/mL (≈ 78 µM)
- MIC ([1]; K. pneumoniae 722870 (OXA-48)): 8 µg/mL (≈ 19.5 µM)
- MIC ([1]; K. pneumoniae BAH (OXA-204)): ≥ 64 µg/mL
- MIC ([1]; K. pneumoniae DEL (OXA-232)): ≥ 64 µg/mL
- MIC ([1]; K. pneumoniae DOV (OXA-48)): 8 µg/mL (≈ 19.5 µM)
- MIC ([1]; K. pneumoniae KIRK (OXA-162)): 8 µg/mL (≈ 19.5 µM)
- MIC ([1]; K. pneumoniae SI-C17 (OXA-48)): ≥ 64 µg/mL
- MIC [2]: 32 µg/mL (≈ 78 µM)
- MIC50 [3]: 8 µg/mL (≈ 19.5 µM)
- MIC90 [3]: ≥ 64 µg/mL
- MIC50 [4]: 16 µg/mL (≈ 39 µM)
- MIC90 [4]: ≥ 64 µg/mL
- MIC90 [4, 5]: ≥ 64 µg/mL
- MIC ([4]; E. cloacae 847426 (KPC)): ≥ 64 µg/mL
- MIC ([4]; E. cloacae 847429 (KPC)): 16 µg/mL (≈ 39 µM)
- MIC ([4]; E. cloacae OIMGH49 (p99 AmpC, ACT-2, KPC-2, TEM-1)): ≥ 64 µg/mL
- MIC ([4]; E. coli 786978 (KPC)): 32 µg/mL (≈ 78 µM)
- MIC ([4]; K. oxytoca 847537 (KPC)): ≥ 64 µg/mL
- MIC ([4]; K. oxytoca 847539 (KPC)): 0.5 µg/mL (≈ 1.22 µM)
- MIC ([4]; K. pneumoniae 155140 (AmpC, KPC-2, SHV-12, TEM-1)): ≥ 64 µg/mL
- MIC ([4]; K. pneumoniae 845661 (KPC)): 32 µg/mL (≈ 78 µM)
- MIC ([4]; K. pneumoniae 845662 (KPC)): 16 µg/mL (≈ 39 µM)
- MIC ([4]; K. pneumoniae 845665 (KPC)): 32 µg/mL (≈ 78 µM)
- MIC ([4]; K. pneumoniae 845667 (KPC)): 16 µg/mL (≈ 39 µM)
- MIC ([4]; K. pneumoniae 845670 (KPC)): 0.5 µg/mL (≈ 1.22 µM)
- MIC ([4]; K. pneumoniae 845904 (KPC)): 1 µg/mL (≈ 2.44 µM)
- MIC ([4]; K. pneumoniae 847204 (KPC)): 16 µg/mL (≈ 39 µM)
- MIC ([4]; K. pneumoniae 847375 (KPC)): 8 µg/mL (≈ 19.5 µM)
- MIC ([4]; K. pneumoniae 847378 (KPC)): 8 µg/mL (≈ 19.5 µM)
- MIC ([4]; K. pneumoniae 847379 (KPC)): 8 µg/mL (≈ 19.5 µM)
- MIC ([4]; K. pneumoniae 847383 (KPC)): 8 µg/mL (≈ 19.5 µM)
- MIC ([4]; K. pneumoniae 847384 (KPC)): 8 µg/mL (≈ 19.5 µM)
- MIC ([4]; K. pneumoniae 847387 (KPC)): 16 µg/mL (≈ 39 µM)
- MIC ([4]; K. pneumoniae 847747 (KPC)): 4 µg/mL (≈ 9.75 µM)
- MIC ([4]; K. pneumoniae 848832 (KPC)): 16 µg/mL (≈ 39 µM)
- MIC ([4]; K. pneumoniae 848844 (KPC)): 16 µg/mL (≈ 39 µM)
